Test results reported in patent US6759238B1, “Multidrug resistance associated proteins and uses thereof” (priority 1999, dated 2004).
Where “and” joins values, the source holds several entries; their conditions need not be identical. Identical values can stand only once. Like-named read-outs stand apart in the source and are kept apart here. One block for each compound: values may come before it.

Tests used:
[1] = Cytotoxicity assay (growth inhibition, Coulter counter); details: human, CEM-SS cells (wild type, parental)
Description: (§1) […] Each result is the mean of one representative experiment performed in duplicate. The cultures with the purine nucleosides adenosine, 2′-deoxyadenosine, and arabinosyladenine contained 5 μM deoxycoformycin to inhibit adenosine deaminase activity.
(§2) All assays were performed in 24-well tissue culture plates (Costar, Cambridge, Ma.). […] At the end of the incubation, the cell concentrations, sizes, and volumes were counted in a Coulter counter (Coulter Electronics, Hialeah. Fla.).

[2] = as above; details: human
Description: (§3) Selection for PMEA resistance was carried out by exposing CEM-SS cells in culture to increasing concentrations of PMEA, over several months.
(§4) The IC50 values were obtained after 2 days of culture. Each result is the mean of one representative experiment performed in duplicate. The cultures with the purine nucleosides adenosine, 2′-deoxyadenosine, and arabinosyladenine contained 5 μM deoxycoformycin to inhibit adenosine deaminase activity.
as §2

[3] = test system: HIV-1IIIB in CEM-SS cells; experiment: Antiviral activity (ED50, RT / p24 assay) in wild type cells; type: cell-based; details: Human immunodeficiency virus 1, WT (CEM-SS) cells
Text: (§5) As used herein, “pM” means picomolar, “nM” means nanmolar, “μM, means micromolar, “mM” means millimolar, “ul” or “μl” mean microliter, “ml” means milliliter, “l” means liter. […] “IC50” means the inhibitory concentration at which growth is arrested by 50 percent.
(§6) The two cell lines, CEM-SS and CEM-r1 were infected with HIV-IMB at a multiplicity of 0.01, and cultured for 6 days in the presence and absence of different concentrations of test drugs. The extent of virus production was monitored by in in-house p24 antigen capture assay (50).
The antiviral effects of the different drugs were monitored by RT assays according to previously described procedures (20, 21). […] After 5 days of incubation, the RT activity of the culture supernates was determined by previously described procedures (22). […] The filter papers were dried, transferred to a plastic bag containing scintillation cocktail, sealed, and counted in an LKB Betaplate reader. The drug concentrations yielding half-maximal RT activity (ED50) was calculated as a measure of the antiviral efficacy of the test compounds, using the nonlinear curve-fitting software Enzfitter (Elsevier Biosoft, Cambridge, UK).

[4] = test system: HIV-1IIIB in CEM-r1 cells; experiment: Antiviral activity (ED50, RT / p24 assay) in resistant cells; type: cell-based; details: for EC50: Human immunodeficiency virus 1, CEM-r1 cells, HIV
Text: as §5, §6
The antiviral effects of the different drugs were monitored by RT assays according to previously described procedures (20, 21). CEM-SS or CEM-r1 cells were infected with an inoculum of HIV-1IIIB standardized to contain 1 RT cpm/cell, and the virus-infected cells were seeded at a concentration of 0.2×10^6 cells/ml in medium containing varying concentrations of PMEA (or other test compounds). After 5 days of incubation, the RT activity of the culture supernates was determined by previously described procedures (22). […] The reaction was initiated by addition of 10 ul of virus-containing tissue culture supernatant. After 1 hr of incubation, 10 ul of the reaction mixture were spotted on a Whatman DE-81 tilter paper, air dried, and washed four times with 2×standard saline citrate (0.3 M NaCl, 0.03 M sodium citrate). The filter papers were dried, transferred to a plastic bag containing scintillation cocktail, sealed, and counted in an LKB Betaplate reader. The drug concentrations yielding half-maximal RT activity (ED50) was calculated as a measure of the antiviral efficacy of the test compounds, using the nonlinear curve-fitting software Enzfitter (Elsevier Biosoft, Cambridge, UK).

CEM-SS cells [5] = experiment: Cytotoxicity assay (growth inhibition, Coulter counter)
Description: as §1, §2

CEM-r1 cells [6] = experiment: as above
Description: as §3, §4, §2

CEM-SS cells [7] = experiment: Phosphorylation of AZT; type: in vitro ADME, human; details: 10 μM AZT
Description: (§7) The appearance of the phosphorylated metabolites into the medium was also determined in both the cell lines. AZTDP and AZTTP were not detected in the medium of either CEM-SS or CEM-r1 cells. However, the amount of AZTMP accumulated in the media was approximately 3-fold higher in CEM-r1 cells than in CEM-SS cells.
(§8) The cartridges were conditioned with 10% MeOH Ammonium Phosphate Buffer (5 mM, pH 4.0). The sample was loaded onto the column. […] AZTDP and AZTTP were eluted with 10% MeOH Ammonium Phosphate Buffer (700 mm, pH 4.6).

CEM-r1 cells [8] = experiment: Phosphorylation of AZT; type: in vitro ADME, human; details: CEM-r1, 10 μM AZT
Description: as §7, §8

[9] = Efflux of [3H]-AZT and its metabolites; type: in vitro ADME, human; details: human, t½ for intracellular AZT, CEM-SS
Description: (§9) Cells were incubated for 60 minutes with [^3H]-AZT (10 μM) after which they were washed free of radioactivity, resuspended in drug-free medium and the intracellular and the extracellular concentration of [^3H]-AZT were measured. […] At least 80% of the AZTMP present intracellularly in CEM-r1 cells was excreted into the medium in 10 minutes (FIG. 6A).
(§10) Referring to Table 6 in greater detail, efflux kinetics were studied. Transport analysis of PMEA was conducted as previously described^48. […] The cells were then washed free of radioactivity and then incubated in drug-free medium in the presence of sodium azide and 2-deoxy-D-glucose. At various time periods, the amount of intracellular AZTMP was measured. As reported in Table 6, depletion of ATP led to an inhibition of AZTMP efflux (i.e. a significant accumulation of AZTMP in the CEM-r1 cells but not in the CEM-SS cells).
(§11) The suspension was centrifuged at 3,300 rpm for 7 minutes. All but 1 ml of the supernatant medium containing the free drug was aspirated. […] The cell pellet was then washed with ice-cold medium and resuspended at the same concentration in drug-free medium and maintained at 37° C. […] An aliquot of the top layer (cell free media) was analyzed for the quantitation of AZT and its metabolites.

[10] = Efflux of [3H]-AZT and its metabolites; type: in vitro ADME, human; details: human, t½ for intracellular AZT, CEM-r1
Description: as §9, §10, §11

CEM-SS and CEM-r1 cells = experiment: Uptake of [3H]-AZT; type: in vitro ADME, human; details: 10 μM and 100 μM, up to 120 seconds
Description: At various time periods (0, 10, 20, 30, 40, 60, 90, 120 seconds) from the start of the incubation, aliquots of the cell suspension were removed and centrifuged through Nyosil 50 (W. F. Nye, Inc.,New Bedford, Ma.) at 14,000×g for 60 seconds at 4° C.

CEM-SS cells [11] = experiment: Uptake and metabolism of [3H]bispom-PMEA; details: CEM-SS, 1 μM [3H]bispom-PMEA, 15 minutes
Description: (§12) Therefore, the metabolism of [^3H]bispom-PMEA (15), a lipophilic prodrug of PMEA, was analyzed in the two cell lines in order to further examine the mechanism of resistance in the mutant cell line.

CEM-r1 cells [12] = experiment: Uptake and metabolism of [3H]bispom-PMEA
Description: as §12

CEM-SS cells [13] = experiment: Efflux of PMEA from bispom-PMEA loaded cells; type: in vitro ADME, human; details: for Efflux kinetics, PMEA: CEMss
Description: (§13) To examine whether the resistant cells could be altered in their capacity to retain the phosphonate analog, the clearance of [^3H]PMEA and its metabolites from CEM-SS and CME-r1 cells was determined. […] Aliquots of cells and medium sampled at different intervals over a period of 2 hr were analyzed by HPLC, and the results are shown in FIG. 4. […] Some of this clearance was probably due to the anabolism of PMEA, because the PMEAp- and PMEApp-associated radioactivity continued to accumulate within the cells, but the majority of the radioactivity was excreted into the medium as PMEA. In contrast to the results with parental cells, loss of intracellular PMEA-associated radioactivity in the resistant CEM-r1 cells was extremely rapid and the majority of the radioactivity within the cells was excreted into the medium within 20-30 minutes of incubation (FIG. 4).
(§14) Both CEM-SS and CME-r1 cells were incubated for 3 minutes with increasing concentrations (range 0.07 mM to 8.80 mM) of the prodrug for the selecting agent, Bis(POM)PMEA. After incubation, the cells were pelleted and reconstituted in drug-free medium, and the amount of PMEA present in the medium and intracellularly was measured 15 minutes after resuspension. The amount of PMEA effluxing out into the medium at 15 minutes increased initially with increasing concentration (FIG. 7A).
as §10
(§15) At the indicated times, extracts were prepared from the cells and the medium, and the prodrug and its various nucleoside/nucleotide metabolites were analyzed by HPLC as described previously (24).

CEM-r1 cells [14] = experiment: Efflux of PMEA from bispom-PMEA loaded cells; type: in vitro ADME, human
Description: as §13, §14
CEM-r1 cells were incubated with 0.07-8.8 mM Bis(POM)PMEA for 3 minutes. The cells were pelleted and reconstituted in either drug-free medium or in medium containing 0.5 mM PMEA, and the amount of PMEA present in the medium and intracellularly was measured 15 minutes after resuspension.
as §10, §15

CaCo-2 cells = experiment: PMEA transport in transwell culture; type: in vitro ADME; details: CaCo-2
Text: A transwell culture which is permissive for cellular polarization may be used to measure the compartment to compartment flux of putative substrates. […] In addition, it is possible that expression of MPR4 depending if it is basal or apical (and this may vary by organ cultured) may determine if PMEA or PMEA-like drugs are absorbed.

CEM-SS cells [15] = experiment: Uptake and metabolism of [3H]PMEA; details: 10 μM [3H]PMEA
Description: (§16) The mutant and parental cells were incubated with 10 μM [^3H]PMEA and at various times were analyzed for intracellular levels of PMEA and its metabolites by Partisil SAX HPLC. […] The metabolism of [^3H]PMEA was also examined in both cell lines after longer periods (i.e., 8 and 12 hr) of incubation with 10 μM [^3H]PMEA.
(§17) Exponentially growing cultures were incubated with 10 μM [^3H] PMEA for 8 or 12 hr and the cell extracts were analyzed for PMEA and its metabolites by ion exchange HPLC, as described.
(§18) Exponentially growing CEM-SS and CEM-r1 cells were harvested by centrifugation, resuspended at 1×10^6 cells/ml in fresh medium in the presence of [^3H]PMEA or [^3H]bispom-PMEA, and incubated at 37° C. At the indicated time points, aliquots of the cells were removed and centrifuged through Nyosil 50 (W. F. Nye, Inc., New Bedford, Ma.) at 13,000×g for 60 seconds at 4° C. When bispom-PMEA was investigated, an aliquot of the cell-free medium was also removed and analyzed by HPLC for determination of extracellular metabolites. The cell pellet was extracted with 70% ice-cold methanol and the aqueous phase was collected and analyzed for intracellular tritiated PMEA or tritiated bispom-PMEA and their metabolites by using HPLC analysis, essentially as described previously (23, 24).

CEM-r1 cells [16] = experiment: Uptake and metabolism of [3H]PMEA; details: for Intracellular levels: CEM-r1, 10 μM [3H]PMEA
Description: as §16, §17, §18

[17] = CEM-r1, 1 μM [3H]bispom-PMEA, 15 minutes

EC50 [3]: 0.21 µM | EC50 [4]: 1.1 µM
SMILES: Nc1ccn([C@@H]2CS[C@H](CO)O2)c(=O)n1 [3TC, lamivudine]
IC50 at 48 h [1]: 1000 µM | IC50 at 48 h [2]: 5000 µM

SMILES: Cc1cn([C@H]2C[C@H](N=[N+]=[N-])[C@@H](CO)O2)c(=O)[nH]c1=O [AZT, zidovudine]
IC50 at 48 h [1]: 500 µM | IC50 (CEM-SS cells [5]; Homo sapiens, CEM-SS, 24 h, read-out: Drug sensitivity (concentration to inhibit 50% growth)): 500 µM | IC50 at 48 h [2]: 3000 µM | IC50 (CEM-r1 cells [6]; Homo sapiens, 24 h, read-out: Drug sensitivity (concentration to inhibit 50% growth)): 3000 µM | EC50 [3]: 0.006 µM | EC50 [4]: 0.14 µM | Intracellular Concentration (CEM-SS cells [7]; 4 hours): 10 µM | Intracellular Concentration (CEM-SS cells [7]; 8 hours): 8 µM | Intracellular Concentration (CEM-SS cells [7]; 24 hours): 10 µM | Intracellular Concentration (CEM-r1 cells [8]; 8 hours): 5.2 µM | Intracellular Concentration (CEM-r1 cells [8]; 24 hours): 4.3 µM | half-life at 10 μM [9]: 8.1 min | half-life at 10 μM [10]: 6.5 min | Cellular uptake in the two cell lines (CEM-SS and CEM-r1 cells): similar

SMILES: Nc1ncnc2c1ncn2CCOCP(=O)(O)O [PMEA, 9-(2phosphonylmethoxyethyl)adenine]
IC50 (CEM-SS cells [5]; CEM-SS, 2 days of culture (Table 3)): 34 µM | IC50 (CEM-SS cells [5]; read-out: Cytotoxicity IC50, WT (CEM-SS) cells (Table 5)): 80 µM | IC50 (CEM-SS cells [5]; read-out: Drug sensitivity (concentration to inhibit 50% growth), CEMss, 24 h exposure (Table 6)): 80 µM | IC50 (CEM-r1 cells [6]; CEM-r1, 2 days of culture (Table 3)): 6200 µM | Relative Resistance (CEM-r1 cells [6]; CEM-r1 vs CEM-SS (Table 3)): 182 | Resistance of CEM-r1 cells to the cytotoxic effects, compared with the parental cells (CEM-r1 cells [6]; CEM-r1 vs parental CEM-SS): ~250 fold and > 250 fold | Fold Resistance (cytotoxicity) (CEM-r1 cells [6]; ratio of IC50 of resistant line to IC50 of wild type): 250 | IC50 (CEM-r1 cells [6]; read-out: Cytotoxicity IC50, CEM-r1 cells (Table 5)): 20000 µM | Fold Resistance (antiviral activity) ([4]; CEM-r1 vs WT): >150 | Metabolite Levels, Cells (CEM-SS cells [11]): 33.1 µM | Metabolite Levels, Medium (CEM-SS cells [11]): 4.8 nM | Levels in CEM-r1 cells relative to those seen in parental cells (CEM-r1 cells [12]; 1 μM [3H]bispom-PMEA, 15 min): about one third | Metabolite Levels, Cells (CEM-r1 cells [12]; [17]): 13.3 µM | Metabolite Levels, Medium (CEM-r1 cells [12]; [17]): 23.2 nM | Levels of extracellular PMEA, CEM-r1 vs parental CEM-SS (CEM-r1 cells [12]; medium, 1 μM [3H]bispom-PMEA, 15 min): ~5 fold | Efflux kinetics, PMEA (CEM-SS cells [13]; Azide + Deoxyglucose): >26 min | Efflux kinetics, PMEA (CEM-SS cells [13]; no treatment): >26 min | Rate of efflux (CEM-SS cells [13]; parental CEM-SS cells): 0.4 pmol/min/10^6 cells | Time to half-maximal clearance of intracellular radioactivity (CEM-SS cells [13]; parental CEM-SS cells, loaded with 1 μM [3H]bispom-PMEA, drug-free medium): about 60 min | Increase in rate of efflux, CEM-r1 vs CEM-SS (CEM-r1 cells [14]): ~7 fold | Amount of PMEA effluxed in the presence or absence of PMEA in the medium (CEM-r1 cells [14]; CEM-r1, medium with 0.5 mM PMEA vs drug-free): no significant difference | Time within which the majority of the radioactivity was excreted into the medium (CEM-r1 cells [14]; CEM-r1 cells, loaded with 2 μM [3H]bispom-PMEA, drug-free medium): 20 to 30 min | Efflux kinetics, PMEA (CEM-r1 cells [14]; CEMr-1, Azide + Deoxyglucose): >26 min | Efflux kinetics, PMEA (CEM-r1 cells [14]; CEMr-1, no treatment): 4.4 min | Rate of efflux (CEM-r1 cells [14]; resistant CEM-r1 cells): 2.55 pmol/min/10^6 | Direction of transport in transwell culture (CaCo-2 cells): more rapidly transported from the apical to the basal side | Cross-resistance of MDR mutant CEM/VLB100 (CEM/VLB100): did not exhibit any cross-resistance | Intracellular levels (CEM-SS cells [15]; 8 hr): 1.7 µM | Intracellular levels (CEM-SS cells [15]; 12 hr): 2.5 µM | Intracellular levels (CEM-r1 cells [16]; 8 hr): 1.0 µM | Intracellular levels (CEM-r1 cells [16]; 12 hr): 1 µM and 0.99 µM | Intracellular level in CEM-r1 as percent of the wildtype level (CEM-r1 cells [16]; CEM-r1 vs CEM-SS, 8 hr): (56%)
